Experimental data taken from ChEMBL document CHEMBL4507261, “Data for DCP probe A-192621” (2021).

Key:
[1] = molecular target: Serine/threonine-protein kinase Sgk2 (Homo sapiens) (UniProt Q9HBY8); details: Compound concentration 1000.0 nM
[2] = molecular target: Serine/threonine-protein kinase Nek5 (Homo sapiens) (UniProt Q6P3R8); details: Compound concentration 1000.0 nM
[3] = system: Mast/stem cell growth factor receptor Kit (Homo sapiens), P10721 [A829P]; details: Compound concentration 1000.0 nM
[4] = system: ALK tyrosine kinase receptor (Homo sapiens), Q9UM73 [L1196M]; details: Compound concentration 1000.0 nM
[5] = molecular target: Mitogen-activated protein kinase kinase kinase kinase 1 (Homo sapiens) (UniProt Q92918); details: Compound concentration 1000.0 nM
[6] = molecular target: Hormonally up-regulated neu tumor-associated kinase (Homo sapiens) (UniProt P57058); details: Compound concentration 1000.0 nM
[7] = molecular target: Serine/threonine-protein kinase N2 (Homo sapiens) (UniProt Q16513); details: Compound concentration 1000.0 nM
[8] = molecular target: Serine/threonine-protein kinase WNK2 (Homo sapiens) (UniProt Q9Y3S1); details: Compound concentration 1000.0 nM
[9] = molecular target: Aurora kinase B (Homo sapiens) (UniProt Q96GD4); details: Compound concentration 1000.0 nM
Chain of Aurora kinase B (Homo sapiens) (Q96GD4 whole entry): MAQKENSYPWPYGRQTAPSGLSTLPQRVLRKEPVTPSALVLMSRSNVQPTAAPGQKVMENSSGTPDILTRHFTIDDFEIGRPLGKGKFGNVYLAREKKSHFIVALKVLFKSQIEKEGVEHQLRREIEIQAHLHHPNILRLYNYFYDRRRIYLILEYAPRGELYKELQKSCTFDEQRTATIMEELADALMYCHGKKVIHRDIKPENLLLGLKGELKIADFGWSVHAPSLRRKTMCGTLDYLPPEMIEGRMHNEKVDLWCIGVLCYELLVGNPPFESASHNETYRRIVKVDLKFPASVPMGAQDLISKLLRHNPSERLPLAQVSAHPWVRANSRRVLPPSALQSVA

[10] = molecular target: Phosphatidylinositol 4-phosphate 5-kinase type-1 gamma (Homo sapiens) (UniProt O60331); details: Compound concentration 1000.0 nM
[11] = molecular target: Tyrosine-protein kinase ZAP-70 (Homo sapiens) (UniProt P43403); details: Compound concentration 1000.0 nM
[12] = molecular target: Serine/threonine-protein kinase PknB (Mycobacterium tuberculosis) (UniProt P9WI81); details: Compound concentration 1000.0 nM
[13] = molecular target: Casein kinase II subunit alpha' (Homo sapiens) (UniProt P19784); details: Compound concentration 1000.0 nM
Chain of Casein kinase II subunit alpha' (Homo sapiens) (P19784 whole entry, looked up, the tested form may be a part): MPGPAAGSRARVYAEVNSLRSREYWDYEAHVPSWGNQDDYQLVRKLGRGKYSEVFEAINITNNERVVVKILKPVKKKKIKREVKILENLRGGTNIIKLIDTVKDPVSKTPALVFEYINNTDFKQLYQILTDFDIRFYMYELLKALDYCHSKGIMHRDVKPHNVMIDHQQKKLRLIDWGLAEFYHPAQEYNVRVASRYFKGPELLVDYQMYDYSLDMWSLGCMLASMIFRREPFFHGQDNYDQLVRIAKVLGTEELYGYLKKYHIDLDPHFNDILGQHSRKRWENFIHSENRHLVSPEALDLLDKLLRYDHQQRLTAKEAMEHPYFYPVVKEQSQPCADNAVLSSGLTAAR

[14] = molecular target: Phosphatidylinositol 4-phosphate 3-kinase C2 domain-containing subunit beta (Homo sapiens) (UniProt O00750); details: Compound concentration 1000.0 nM
[15] = molecular target: Uncharacterized serine/threonine-protein kinase SBK3 (Homo sapiens) (UniProt P0C264); details: Compound concentration 1000.0 nM
[16] = molecular target: Ribosomal protein S6 kinase alpha-5 (Homo sapiens) (UniProt O75582); details: Compound concentration 1000.0 nM
[17] = system: Proto-oncogene tyrosine-protein kinase receptor Ret (Homo sapiens), P07949 [M918T]; details: Compound concentration 1000.0 nM
[18] = molecular target: Tyrosine-protein kinase Tec (Homo sapiens) (UniProt P42680); details: Compound concentration 1000.0 nM
[19] = molecular target: Serine/threonine-protein kinase SIK2 (Homo sapiens) (UniProt Q9H0K1); details: Compound concentration 1000.0 nM
[20] = system: Proto-oncogene tyrosine-protein kinase receptor Ret (Homo sapiens), P07949 [V804L]; details: Compound concentration 1000.0 nM
[21] = molecular target: Cyclin-dependent kinase-like 1 (Homo sapiens) (UniProt Q00532); details: Compound concentration 1000.0 nM
[22] = molecular target: Ribosomal protein S6 kinase beta-1 (Homo sapiens) (UniProt P23443); details: Compound concentration 1000.0 nM
Chain of Ribosomal protein S6 kinase beta-1 (Homo sapiens) (P23443 whole entry, looked up): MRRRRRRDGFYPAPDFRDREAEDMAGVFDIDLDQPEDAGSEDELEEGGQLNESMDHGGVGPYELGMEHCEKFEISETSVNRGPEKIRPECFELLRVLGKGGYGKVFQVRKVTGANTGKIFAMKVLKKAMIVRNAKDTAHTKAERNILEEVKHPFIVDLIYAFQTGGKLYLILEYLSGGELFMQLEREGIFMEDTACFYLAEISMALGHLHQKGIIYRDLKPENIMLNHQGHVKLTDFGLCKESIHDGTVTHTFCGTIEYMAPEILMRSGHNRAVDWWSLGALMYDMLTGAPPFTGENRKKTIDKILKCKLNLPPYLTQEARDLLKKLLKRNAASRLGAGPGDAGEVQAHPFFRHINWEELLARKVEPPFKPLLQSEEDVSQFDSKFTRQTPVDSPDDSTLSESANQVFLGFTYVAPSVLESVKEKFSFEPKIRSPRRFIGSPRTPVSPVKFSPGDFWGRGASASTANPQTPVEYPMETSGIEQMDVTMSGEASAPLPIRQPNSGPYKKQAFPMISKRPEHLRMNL

[23] = molecular target: Phosphatidylinositol 4-kinase beta (Homo sapiens) (UniProt Q9UBF8); details: Compound concentration 1000.0 nM
Chain of Phosphatidylinositol 4-kinase beta (Homo sapiens) (Q9UBF8 2-816 limits assumed): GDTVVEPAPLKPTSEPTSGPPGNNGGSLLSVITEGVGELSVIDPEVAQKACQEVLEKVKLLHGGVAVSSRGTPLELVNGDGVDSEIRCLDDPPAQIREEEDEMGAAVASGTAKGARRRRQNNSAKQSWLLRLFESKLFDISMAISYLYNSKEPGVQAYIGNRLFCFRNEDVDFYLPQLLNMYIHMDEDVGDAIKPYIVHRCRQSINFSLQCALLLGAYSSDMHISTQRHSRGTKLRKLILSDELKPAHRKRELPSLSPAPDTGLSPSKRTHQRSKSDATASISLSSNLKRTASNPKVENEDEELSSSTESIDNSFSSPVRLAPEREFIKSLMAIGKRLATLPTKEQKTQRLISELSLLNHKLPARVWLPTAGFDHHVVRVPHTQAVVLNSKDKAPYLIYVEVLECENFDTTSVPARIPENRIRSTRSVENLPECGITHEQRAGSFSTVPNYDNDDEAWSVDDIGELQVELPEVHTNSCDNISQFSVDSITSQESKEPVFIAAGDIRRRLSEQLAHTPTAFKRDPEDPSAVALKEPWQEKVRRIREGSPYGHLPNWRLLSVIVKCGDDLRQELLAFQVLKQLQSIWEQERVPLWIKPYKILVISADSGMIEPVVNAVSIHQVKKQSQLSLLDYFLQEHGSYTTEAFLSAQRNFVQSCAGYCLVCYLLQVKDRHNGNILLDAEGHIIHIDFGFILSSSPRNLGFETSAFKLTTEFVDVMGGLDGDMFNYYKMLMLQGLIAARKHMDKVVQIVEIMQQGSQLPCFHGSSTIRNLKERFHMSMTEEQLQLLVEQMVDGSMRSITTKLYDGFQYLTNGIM

[24] = molecular target: Serine/threonine-protein kinase Nek2 (Homo sapiens) (UniProt P51955); details: Compound concentration 1000.0 nM
Chain of Serine/threonine-protein kinase Nek2 (Homo sapiens) (P51955 whole entry): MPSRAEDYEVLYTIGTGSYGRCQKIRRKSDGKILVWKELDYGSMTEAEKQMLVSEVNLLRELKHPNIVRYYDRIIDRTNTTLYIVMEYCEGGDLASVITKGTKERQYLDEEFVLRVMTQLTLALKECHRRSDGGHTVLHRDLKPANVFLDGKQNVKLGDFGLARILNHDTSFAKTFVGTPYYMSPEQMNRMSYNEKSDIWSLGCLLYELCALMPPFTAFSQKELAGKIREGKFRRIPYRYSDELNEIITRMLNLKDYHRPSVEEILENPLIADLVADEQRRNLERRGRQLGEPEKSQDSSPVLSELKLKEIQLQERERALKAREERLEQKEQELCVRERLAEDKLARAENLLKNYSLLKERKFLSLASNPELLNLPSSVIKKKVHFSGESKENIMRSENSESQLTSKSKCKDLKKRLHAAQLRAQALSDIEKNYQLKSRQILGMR

[25] = molecular target: Protein-tyrosine kinase 2-beta (Homo sapiens) (UniProt Q14289); details: Compound concentration 1000.0 nM
[26] = molecular target: Substance-P receptor (Homo sapiens) (UniProt P25103); test: NK1 (h) Eurofins-Cerep binding assay; set-up: ligand concentration 0.05 nM; details: filed as agonist, Compound concentration 10.0 uM
[27] = molecular target: Protein kinase C theta type (Homo sapiens) (UniProt Q04759); details: Compound concentration 1000.0 nM
Chain of Protein kinase C theta type (Homo sapiens) (Q04759 whole entry, looked up): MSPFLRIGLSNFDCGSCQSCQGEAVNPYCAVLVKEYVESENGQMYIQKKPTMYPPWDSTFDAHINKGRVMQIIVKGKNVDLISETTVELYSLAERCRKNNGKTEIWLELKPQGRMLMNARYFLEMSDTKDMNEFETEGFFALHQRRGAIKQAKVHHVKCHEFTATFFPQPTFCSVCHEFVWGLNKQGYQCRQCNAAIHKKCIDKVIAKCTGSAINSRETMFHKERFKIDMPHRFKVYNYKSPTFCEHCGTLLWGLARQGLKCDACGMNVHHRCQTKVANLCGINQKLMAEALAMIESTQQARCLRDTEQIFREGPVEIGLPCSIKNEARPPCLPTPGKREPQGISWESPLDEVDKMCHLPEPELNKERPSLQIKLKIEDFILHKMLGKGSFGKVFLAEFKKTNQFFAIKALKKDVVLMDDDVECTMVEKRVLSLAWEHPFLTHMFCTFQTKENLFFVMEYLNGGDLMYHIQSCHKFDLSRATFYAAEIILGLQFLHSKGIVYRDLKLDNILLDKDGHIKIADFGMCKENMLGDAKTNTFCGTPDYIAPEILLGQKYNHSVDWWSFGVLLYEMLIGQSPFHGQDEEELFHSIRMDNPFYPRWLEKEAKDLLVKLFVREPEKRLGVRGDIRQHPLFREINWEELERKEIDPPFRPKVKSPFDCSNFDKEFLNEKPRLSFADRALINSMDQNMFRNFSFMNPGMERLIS

[28] = molecular target: Homeodomain-interacting protein kinase 3 (Homo sapiens) (UniProt Q9H422); details: Compound concentration 1000.0 nM
[29] = molecular target: GABA-A receptor; alpha-1/beta-2/gamma-2 (Homo sapiens) (UniProt P14867+P47870+P18507); test: GABAA1 (h) (alpha1,beta2,gamma2) Eurofins-Cerep binding assay; assay type: protein-complex assay; set-up: ligand concentration 15 nM; details: filed as agonist, Compound concentration 10.0 uM
[30] = molecular target: Beta-2 adrenergic receptor (Homo sapiens) (UniProt P07550); test: Beta2 (h) Eurofins-Cerep binding assay; set-up: ligand concentration 0.3 nM; details: filed as antagonist, Compound concentration 10.0 uM
[31] = molecular target: Serine/threonine-protein kinase tousled-like 2 (Homo sapiens) (UniProt Q86UE8); details: Compound concentration 1000.0 nM
[32] = molecular target: RAC-gamma serine/threonine-protein kinase (Homo sapiens) (UniProt Q9Y243); details: Compound concentration 1000.0 nM
[33] = molecular target: BDNF/NT-3 growth factors receptor (Homo sapiens) (UniProt Q16620); details: Compound concentration 1000.0 nM
[34] = molecular target: Dual specificity tyrosine-phosphorylation-regulated kinase 1A (Homo sapiens) (UniProt Q13627); details: Compound concentration 1000.0 nM
[35] = molecular target: Fibroblast growth factor receptor 4 (Homo sapiens) (UniProt P22455); details: Compound concentration 1000.0 nM
[36] = molecular target: Wee1-like protein kinase 2 (Homo sapiens) (UniProt P0C1S8); details: Compound concentration 1000.0 nM
[37] = molecular target: Serine/threonine-protein kinase PLK4 (Homo sapiens) (UniProt O00444); details: Compound concentration 1000.0 nM
[38] = molecular target: Serine/threonine-protein kinase TNNI3K (Homo sapiens) (UniProt Q59H18); details: Compound concentration 1000.0 nM
Chain of Serine/threonine-protein kinase TNNI3K (Homo sapiens) (Q59H18 whole entry): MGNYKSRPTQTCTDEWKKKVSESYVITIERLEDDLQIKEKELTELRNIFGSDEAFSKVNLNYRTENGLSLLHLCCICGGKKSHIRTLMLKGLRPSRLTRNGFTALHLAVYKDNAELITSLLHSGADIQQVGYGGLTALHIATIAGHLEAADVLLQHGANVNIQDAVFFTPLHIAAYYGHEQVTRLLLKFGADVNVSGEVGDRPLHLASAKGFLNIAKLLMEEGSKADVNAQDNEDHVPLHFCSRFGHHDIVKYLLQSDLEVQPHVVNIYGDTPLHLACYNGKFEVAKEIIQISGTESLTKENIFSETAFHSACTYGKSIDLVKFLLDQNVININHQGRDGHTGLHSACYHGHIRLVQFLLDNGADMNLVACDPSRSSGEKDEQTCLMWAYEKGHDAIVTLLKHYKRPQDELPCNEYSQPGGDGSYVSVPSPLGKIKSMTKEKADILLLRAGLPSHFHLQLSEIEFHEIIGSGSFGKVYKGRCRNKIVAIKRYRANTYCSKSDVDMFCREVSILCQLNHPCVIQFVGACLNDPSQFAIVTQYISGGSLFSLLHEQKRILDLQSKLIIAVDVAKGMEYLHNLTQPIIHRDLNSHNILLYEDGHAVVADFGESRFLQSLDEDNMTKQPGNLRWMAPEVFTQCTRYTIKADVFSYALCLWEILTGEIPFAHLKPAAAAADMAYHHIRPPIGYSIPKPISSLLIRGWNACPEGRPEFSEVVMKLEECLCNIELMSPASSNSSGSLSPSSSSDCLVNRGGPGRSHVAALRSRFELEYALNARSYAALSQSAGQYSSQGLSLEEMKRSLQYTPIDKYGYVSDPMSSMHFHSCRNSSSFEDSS

[39] = molecular target: 5-hydroxytryptamine receptor 2A (Homo sapiens) (UniProt P28223); test: 5-HT2A (h) Eurofins-Cerep binding assay; set-up: ligand concentration 0.5 nM; details: filed as antagonist, Compound concentration 10.0 uM
[40] = molecular target: Tyrosine-protein kinase Lyn (Homo sapiens) (UniProt P07948); details: Compound concentration 1000.0 nM
[41] = molecular target: Testis-specific serine/threonine-protein kinase 1 (Homo sapiens) (UniProt Q9BXA7); details: Compound concentration 1000.0 nM
Chain of Testis-specific serine/threonine-protein kinase 1 (Homo sapiens) (Q9BXA7 whole entry): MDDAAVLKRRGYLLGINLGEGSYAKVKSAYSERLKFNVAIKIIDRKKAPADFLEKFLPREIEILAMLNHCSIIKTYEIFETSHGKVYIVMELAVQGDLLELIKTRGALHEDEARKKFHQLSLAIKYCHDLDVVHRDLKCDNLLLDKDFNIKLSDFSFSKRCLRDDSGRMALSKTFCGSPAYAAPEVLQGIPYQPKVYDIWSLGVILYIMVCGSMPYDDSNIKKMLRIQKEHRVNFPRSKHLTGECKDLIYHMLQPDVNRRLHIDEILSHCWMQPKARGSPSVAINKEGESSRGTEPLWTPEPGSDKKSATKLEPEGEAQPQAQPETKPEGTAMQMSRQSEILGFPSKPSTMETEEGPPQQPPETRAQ

[42] = molecular target: Serine/threonine-protein kinase mTOR (Homo sapiens) (UniProt P42345); details: Compound concentration 1000.0 nM
[43] = molecular target: Sulfonylurea receptors; K-ATP channels (Rattus norvegicus) (UniProt Q63563+P70673+Q63664+Q09429); test: KATP channel Eurofins-Cerep binding assay; assay type: protein-complex assay; details: filed as antagonist, Compound concentration 10.0 uM
[44] = molecular target: Casein kinase I isoform alpha-like (Homo sapiens) (UniProt Q8N752); details: Compound concentration 1000.0 nM
Chain of Casein kinase I isoform alpha-like (Homo sapiens) (Q8N752 whole entry, canonical isoform): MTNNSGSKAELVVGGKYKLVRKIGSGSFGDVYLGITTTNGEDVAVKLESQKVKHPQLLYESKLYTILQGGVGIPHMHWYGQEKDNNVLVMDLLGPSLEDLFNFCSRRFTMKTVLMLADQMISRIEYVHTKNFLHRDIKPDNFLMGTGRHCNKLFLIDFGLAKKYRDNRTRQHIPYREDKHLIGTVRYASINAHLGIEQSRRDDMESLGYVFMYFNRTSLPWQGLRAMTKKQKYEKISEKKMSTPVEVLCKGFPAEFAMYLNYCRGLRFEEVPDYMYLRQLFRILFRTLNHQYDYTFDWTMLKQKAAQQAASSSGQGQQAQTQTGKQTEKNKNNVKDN

CCCOc1ccc([C@H]2[C@H](C(=O)O)[C@@H](c3ccc4c(c3)OCO4)CN2CC(=O)Nc2c(CC)cccc2CC)cc1 [A-192621]
residual activity [1]: 54%
residual activity [2]: 29%
residual activity [3]: 63%
residual activity [4]: 91%
residual activity [5]: 92%
residual activity [6]: 100%
residual activity [7]: 100%
residual activity [8]: 58%
residual activity [9]: 72%
residual activity [10]: 100%
residual activity [11]: 50%
residual activity [12]: 78%
residual activity [13]: 87%
residual activity [14]: 92%
residual activity [15]: 94%
residual activity [16]: 89%
residual activity [17]: 84%
residual activity [18]: 100%
residual activity [19]: 89%
residual activity [20]: 93%
residual activity [21]: 66%
residual activity [22]: 76%
residual activity [23]: 75%
residual activity [24]: 90%
residual activity [25]: 98%
% Inhibition of Control Specific Binding (Mean n=2) [26]: 36.7%
residual activity [27]: 81%
residual activity [28]: 74%
% Inhibition of Control Specific Binding (Mean n=2) [29]: -34%
% Inhibition of Control Specific Binding (Mean n=2) [30]: -0.2%
residual activity [31]: 94%
residual activity [32]: 82%
residual activity [33]: 85%
residual activity [34]: 73%
residual activity [35]: 87%
residual activity [36]: 85%
residual activity [37]: 78%
residual activity [38]: 100%
% Inhibition of Control Specific Binding (Mean n=2) [39]: 5.5%
residual activity [40]: 90%
residual activity [41]: 92%
residual activity [42]: 77%
% Inhibition of Control Specific Binding (Mean n=2) [43]: 11.1%
residual activity [44]: 92%

CCCOc1ccc([C@@H]2[C@@H](C(=O)O)[C@H](c3ccc4c(c3)OCO4)CN2CC(=O)Nc2c(CC)cccc2CC)cc1 [A-1806262]
residual activity [1]: 69%
residual activity [2]: 55%
residual activity [3]: 66%
residual activity [4]: 78%
residual activity [5]: 92%
residual activity [6]: 70%
residual activity [7]: 100%
residual activity [8]: 88%
residual activity [9]: 77%
residual activity [10]: 100%
residual activity [11]: 94%
residual activity [12]: 98%
residual activity [13]: 83%
residual activity [14]: 94%
residual activity [15]: 85%
residual activity [16]: 97%
residual activity [17]: 97%
residual activity [18]: 96%
residual activity [19]: 96%
residual activity [20]: 97%
residual activity [21]: 77%
residual activity [22]: 79%
residual activity [23]: 100%
residual activity [24]: 97%
residual activity [25]: 97%
% Inhibition of Control Specific Binding (Mean n=2) [26]: 32.2%
residual activity [27]: 100%
residual activity [28]: 85%
% Inhibition of Control Specific Binding (Mean n=2) [29]: -33.6%
% Inhibition of Control Specific Binding (Mean n=2) [30]: 3.6%
residual activity [31]: 100%
residual activity [32]: 100%
residual activity [33]: 100%
residual activity [34]: 86%
residual activity [35]: 93%
residual activity [36]: 87%
residual activity [37]: 82%
residual activity [38]: 84%
% Inhibition of Control Specific Binding (Mean n=2) [39]: -2.9%
residual activity [40]: 96%
residual activity [41]: 100%
residual activity [42]: 100%
% Inhibition of Control Specific Binding (Mean n=2) [43]: 6%
residual activity [44]: 94%
